Where no end group is shown, it is not given here.
Assays:
[1] = tested on: Caspase 3 (Casp3) gene expression; assay: Caspase 3 gene expression by real-time RT-PCR; type: cell-based, rat; conditions: 25 µM
Protocol: (§1) Total RNA was extracted using an ABI 6100 Nucleic Acid PrepStation according to the manufacturer’s protocol (Applied Biosystems Inc., Foster City, CA, USA). Total RNA from cells was isolated and stored at −80 °C. The quality of isolated RNA was estimated by the ratio A260/A280 and was in the range of 1.9–2.1. RNA integrity was evaluated by agarose gel electrophoresis according to MIQE guidelines using the “bleach gel” method. RNA concentrations were determined from the A260. One microgram of total RNA was reverse transcribed using Applied Biosystems High-Capacity cDNA Archive Kit.
(§2) To assess relative gene expression in neurons, quantitative real-time RT-PCR analysis was performed with an Applied Biosystems Prism 7500 Fast Sequence Detection System using TaqMan® universal PCR master mix according to the manufacturer’s specifications. […] Levels of RNA expression were determined using the 7500 Fast System SDS software version 1.3.1 (Applied Biosystems) according to the 2^−ΔΔCt method. […] The results from three independent repeat assays, performed in different plates each using different cDNA’s from the cultures analyzed, were averaged to produce a single mean quantity value for each mRNA.

Total mGluR = assay: L-[3H]glutamate radioligand binding in intact cortical neurons; design: species or system rat; conditions: for Total mGluR Bmax: L-[3H]Glutamate saturation binding
Protocol: Metabotropic glutamate receptors were determined using the radioligand L-[^3H]glutamate, as described previously. Radioligand binding assays using intact cells were performed in 24-well plates. Briefly, cells were washed with serum-free DMEM buffered with 20 mM HEPES pH 7.4 and incubated for 60 min at 37 °C in a final volume of 250 µL, in the presence of 100 μM AMPA, 100 μM NMDA, and 100 μM kainate, to block glutamate binding to these receptor types; 10 μM of the glutamate uptake inhibitor D,L-threo-β-hydroxyaspartic acid; and increasing concentrations of L-[^3H] glutamate (200 nM to 1.2 µM). Non-labeled L-Glutamate in a concentration of 10^5 times higher than the radioligand was used to determine non-specific binding. After incubation, cells were washed with 500 µL of ice-cold buffer and disrupted with 0.2% SDS. Well contents were then transferred to vials and a scintillation liquid mixture was added to measure radioactivity. At least two wells from each plate were reserved for protein concentration measurement.

mGluR5 = assay: Extracellular immunostaining of mGluR5 in non-permeabilized neurons; type: cell-based, rat; conditions: 25 µM, 24 h, whole-cell immunostaining
Protocol: The quantitative analysis of the levels of Group I mGluR and mGluR2,3 at the plasma membrane was performed with extracellular targeted polyclonal antibodies (mGluR1, mGluR5 and mGluR2,3, Alomone Labs, Jerusalem, Israel), as previously described with minor modifications. Briefly, after 2 weeks in culture, the culture medium was removed and cells washed with Locke Buffer (LB, pH 7.4). Cells were then fixed with 4% paraformaldehyde for 10 min at room temperature and washed with three 10-min intervals with LB.
Nonspecific staining was suppressed by blocking with 3% normal goat serum in LB for 60 min. […]
To evaluate the degree of fluorescence intensity in cortical neurons, fluorescence was measured to estimate the protein expression in the different experimental conditions analyzed. Images (448.6 µm × 335.08 µm) obtained with a digital camera (Leica DFC350FX R2), attached to a Leica DMI6000B (Leica Microsystems, Wetzlar, Germany) fluorescent microscope, were used for quantification (20x HCX PL FLUOTAR 0.4 dry objective). […] Fluorescence intensity was estimated by averaging mean grey values. […] Data were normalized to the total number of cells in the analyzed fields. The mean fluorescence background, calculated in the unstained regions between neurons, was subtracted from the fluorescence intensity of each data point. […]

[2] = tested on: A1R (ADORA1) gene expression; assay: A1R gene expression by real-time PCR; type: cell-based, rat; conditions: 25 µM, 24 or 48 h
Protocol: as §1, §2

[3] = neurons exposed to 25 µM for 24 h
[4] = neurons exposed to 25 µM for 48 h

- caspase 3 gene expression ([1]; 24 h): significant increase
- caspase 3 gene expression ([1]; 48 h): significant increase
- mGluR affinity (1/KD), % of the control value (Total mGluR; 25 µM, 24 or 48 h): ~50%
- Total mGluR density (Bmax) increase over control value (Total mGluR; 25 µM, 24 h): 61%
- Total mGluR density (Bmax) increase over control value (Total mGluR; 25 µM, 48 h): 99%
- Kd (Total mGluR; [3]): 1610 ± 423 nM
- Total mGluR Bmax (Total mGluR; [3]): 952 ± 9 pmol/mg prot
- Kd (Total mGluR; [4]): 1520 ± 163 nM
- Total mGluR Bmax (Total mGluR; [4]): 1178 ± 93 pmol/mg prot
Sequence: GSNKGAIIGLM [Aβ25-35]
- mGluR5 density at the membrane level vs control value (mGluR5): twice over control value
- A1R gene expression [2]: significantly increased
